# Data: patent US20130324428A1, “SPECIFIC BIOMARKER FOR IDENTIFICATION OF EXPOSURE TO LOWER ALIPHATIC SATURATED ALDEHYDES AND THE METHOD OF IDENTIFICATION USING THE SAME” (KOREA INSTITUTE OF SCIENCE AND TECHNOLOGY, priority 2012, published 2013)
# Columns and labels:
# Assay type in all cases: cell-based, human
# [1] = tested on: DHRS9 (NM_005771) expression in A549 cells; experiment: Oligo microarray gene expression, DHRS9; details: A549 cells treated 48 hours at the IC20 concentration; Cy5/Cy3 ratio vs untreated control
# Method: (§1) A549 cells were distributed in 6-well plate at the density of 25×10^4 cells/ml, to which lower aliphatic saturated aldehydes were treated for 48 hours at the concentrations determined in Example <1-2>. Total RNA was extracted from the cells by using trizol reagent according to the manufacturer's protocol (Invitrogen life technologies, USA), followed by purification by using RNease mini kit (Qiagen, USA). Genomic DNA was eliminated by using RNase-free DNase set (Qiagen, USA) during the RNA purification. The amount of total RNA was measured with spectrophotometer, and the concentration was confirmed by ND-1000 Spectrophotometer (Thermo Fisher Scientific Inc., USA) and Agilent 2100 Bioanalyzer (Agilent).
# (§2) For oligomicroarray analysis, cDNA was synthesized by using the total RNA obtained from the experimental group treated with lower aliphatic saturated aldehydes prepared in Example <2-1>. 30 μg of the obtained total RNA and 2 μg of oilgo (dT) primer (1 μg/μl) were mixed together, followed by reaction at 65° C. for 10 minutes, which was transferred into ice for annealing. Upon completion of annealing, reagents were added thereto as shown in Table 1 to induce reverse transcription of the annealed RNA. The total RNA extracted from the control group A549 cells was labeled with Cy3-dUTP (green). The total RNA extracted from the experimental group A549 cells treated with lower aliphatic saturated aldehydes was labeled with Cy5-dUTP (red). At that time, the two samples were mixed and purified by using Microcon YM-30 column (Millipore, USA).
# (§3) Hybridization and washing processes were performed according to the protocol provided by Ebiogen Inc.
# (§4) Labeled cRNA was purified. 600 ng of the purified cRNA was reacted at 60° C. for 30 minutes for fragmentation. The prepared cRNA was mixed with 2×GEx Hybridization Buffer HI-RPM. After well mixing, the mixture was loaded on chip, followed by hybridization in the oven at 65° C. for 17 hours. 17 hours later, the chip was washed with GE Wash Buffer […] and with GE Wash Buffer 2 for 1 minute. Centrifugation was performed with the chip at 800 rpm for 3 minutes, followed by drying thereof.
# (§5) Hybridization images on the slide were scanned with Agilent C scanner (Agilent technologies, CA, USA). At that time, the green fluorescent image indicated the activity of gene expressed specifically in the control group, while the red fluorescent image indicated the activity of gene expressed specifically in the experimental group. […] To obtain gene expression rate, the scanned images were analyzed by using Agilent Feature Extraction 10.7.3.1 (Agilent technologies, CA, USA). The extracted data proceeded to normalization by using Agilent GeneSpring GX 11.5.1 (Agilent technologies, CA, USA) to analyze gene expression pattern of each gene. The marker gene for lower aliphatic saturated aldehydes was selected from the obtained data.
# [2] = tested on: KIF1A (NM_004321) expression in A549 cells; experiment: Oligo microarray gene expression, KIF1A; details: A549 cells treated 48 hours at the IC20 concentration; Cy5/Cy3 ratio vs untreated control
# Method: as §1, §2, §3, §4, §5
# A549 cells = experiment: in vitro
# Method: (§6) A549 cells (Korean Cell Line Bank), the human lung cancer tissue derived cell line, were cultured in 100 mm dish containing RPMI (Gibro-BRL, USA) supplemented with 10% FBS until the confluency reached 80%. […] The concentration of vehicle was up to 0.1% in every experiment.
# (§7) MTT assay was performed with A549 cell line according to the method of Mossman, et al (J. Immunol. Methods, 65, 55-63, 1983).
# (§8) Particularly, the cells were distributed in 24-well plate (3.5×10^4 cells/well) containing RPMI (Gibro-BRL, USA) and then treated with lower aliphatic saturated aldehydes dissolved in DMSO. 48 hours later, 5 mg/ml of MTT (3-4,5-dimethylthiazol-2,5-diphenyltetra zolium bromide) was added thereto, followed by culture at 37° C. for 3 hours. Then, the medium was discarded and the formed formazan crystal was dissolved in 500 μl of DMSO, which was aliquoted in 96-well plate. OD540 was measured.
# [3] = tested on: EMR2 (NM_013447) expression in A549 cells; experiment: Oligo microarray gene expression, EMR2; details: A549 cells treated 48 hours at the IC20 concentration; Cy5/Cy3 ratio vs untreated control
# Method: as §1, §2, §3, §4, §5
# [4] = tested on: B3GALT4 (NM_003782) expression in A549 cells; experiment: Oligo microarray gene expression, B3GALT4; details: A549 cells treated 48 hours at the IC20 concentration; Cy5/Cy3 ratio vs untreated control
# Method: as §1, §2, §3, §4, §5
# [5] = tested on: KIAA1199 (NM_018689) expression in A549 cells; experiment: Oligo microarray gene expression, KIAA1199; details: A549 cells treated 48 hours at the IC20 concentration; Cy5/Cy3 ratio vs untreated control
# Method: as §1, §2, §3, §4, §5
# in vitro = details: human
# Method: as §6, §7, §8
SMILES,"Median ratio of microarray, DHRS9 [1]","Median ratio of microarray, KIF1A [2]",IC20 (A549 cells),"Median ratio of microarray, EMR2 [3]","Median ratio of microarray, B3GALT4 [4]","Median ratio of microarray, KIAA1199 [5]",IC20 at 48 h (in vitro)
CCCC=O [butylaldehyde],2.353,14.175,4600 µM,8.094,0.498,1.733,
CCCCCCC=O [heptanal],2.157,1.955,,2.25,0.634,2.815,600 µM
CCCCCC=O [hexanal],1.654,1.682,,1.89,0.574,1.736,800 µM
CCCCCCCC=O [octanal],3.057,2.262,,1.785,0.564,2.294,580 µM
CCC=O [propionaldehyde],2.988,3.814,,6.906,0.483,4.454,2500 µM
CCCCC=O [valeraldehyde],2.088,7.871,,6.242,0.53,3.122,1700 µM
